Reference: US20250136702A1, “HUMAN LIFR ANTIGEN BINDING PROTEIN, PREPARATION METHOD THEREFOR, AND APPLICATION THEREOF” (NONA BIOSCIENCES (SUZHOU) CO., LTD., priority 2020, published 2025)

Test system: Human pancreatic cancer Capan-2 cells
Assay: Pharmacodynamics in Capan-2 tumor mouse model
Format: in vivo, Balb/c nude mice
Settings: Capan-2 model, TIW × 9 doses
Experimental: In this experiment, Capan-2 tumor mouse model was used to study the anti-tumor activity of anti-human LIFR antibody. The pharmacodynamics of PR300516 antibody administered alone (5 mg/kg and 15 mg/kg) in Capan-2 mouse model were studied. Human pancreatic cancer Capan-2 cells (ATCC cell bank) were subcutaneously inoculated into female Balb/c nude mice (charles river). The treatment method of the antibody group is: on the 5th day, the 9th day, the 12th day, the 16th day, the 19th day and the 23rd day after the tumor cell inoculation, the mice of each group are injected with the corresponding antibodies in the intraperitoneal cavity. The treatment method of the small molecule inhibitor group is: EC359 small molecule inhibitors were administered orally to mice on days 5, 7, 9, 12, 14, 16, 19, 21 and 23 after tumor cell inoculation. The tumor volume was measured on the 5th, 9th, 12th, 16th, 19th and 23rd days after tumor cell inoculation, and then the mice were euthanized.

## C#CC(F)(F)[C@]1(O)CC[C@H]2[C@@H]3CCC4=CC(=O)CCC4=C3[C@@H](c3ccc(-c4c(C)cc(C)cc4C)cc3)C[C@@]21C [EC359, reference compound]
5 mg/kg oral
  TGI (%): 40.99%
15 mg/kg oral
  TGI (%): 47.85%
